# Data: US11173160B2 (UNIVERSITY OF PITTSBURGH—OF THE COMMONWEALTH SYSTEM OF …, priority 2019, dated 2021)
# Entries after “also recorded” stand apart in the source; their conditions may differ. Read-outs that look alike come from different tables or passages of the source.
# What was measured:
# [1] = cited from earlier work
# [2] = molecular target: PDGFRβ (Homo sapiens, UniProt P09619); conditions: cited from earlier work
# [3] = molecular target: CK1α1 (Homo sapiens, UniProt P48729); conditions: cited from earlier work
# CK1α1, sequence (P48729 whole entry): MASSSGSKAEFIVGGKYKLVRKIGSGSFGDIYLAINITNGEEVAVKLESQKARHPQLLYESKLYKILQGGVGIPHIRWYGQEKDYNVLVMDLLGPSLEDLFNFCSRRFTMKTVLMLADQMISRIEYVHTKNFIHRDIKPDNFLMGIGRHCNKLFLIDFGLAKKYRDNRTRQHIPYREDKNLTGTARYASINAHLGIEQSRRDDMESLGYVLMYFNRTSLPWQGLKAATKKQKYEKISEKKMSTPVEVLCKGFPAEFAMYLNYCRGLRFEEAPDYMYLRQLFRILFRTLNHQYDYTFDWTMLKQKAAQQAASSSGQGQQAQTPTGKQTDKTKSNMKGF
# [4] = molecular target: GSK3α (Homo sapiens, UniProt P49840); conditions: cited from earlier work
# GSK3α, sequence (P49840 whole entry): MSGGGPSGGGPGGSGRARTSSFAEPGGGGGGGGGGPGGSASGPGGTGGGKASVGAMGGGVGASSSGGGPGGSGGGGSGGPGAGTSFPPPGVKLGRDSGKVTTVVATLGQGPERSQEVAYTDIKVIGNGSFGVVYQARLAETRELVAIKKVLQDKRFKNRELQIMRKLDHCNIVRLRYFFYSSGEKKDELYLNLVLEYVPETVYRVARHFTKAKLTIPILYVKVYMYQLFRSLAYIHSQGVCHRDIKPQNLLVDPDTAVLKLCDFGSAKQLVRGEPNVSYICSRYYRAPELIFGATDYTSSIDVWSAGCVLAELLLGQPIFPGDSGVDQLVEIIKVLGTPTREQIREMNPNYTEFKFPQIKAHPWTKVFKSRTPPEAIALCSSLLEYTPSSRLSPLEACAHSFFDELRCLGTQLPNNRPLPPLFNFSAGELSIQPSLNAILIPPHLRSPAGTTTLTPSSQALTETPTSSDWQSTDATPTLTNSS
# [5] = molecular target: TAK1 (Homo sapiens, UniProt O43318); conditions: cited from earlier work
# TAK1, sequence (O43318 1-303 limits assumed): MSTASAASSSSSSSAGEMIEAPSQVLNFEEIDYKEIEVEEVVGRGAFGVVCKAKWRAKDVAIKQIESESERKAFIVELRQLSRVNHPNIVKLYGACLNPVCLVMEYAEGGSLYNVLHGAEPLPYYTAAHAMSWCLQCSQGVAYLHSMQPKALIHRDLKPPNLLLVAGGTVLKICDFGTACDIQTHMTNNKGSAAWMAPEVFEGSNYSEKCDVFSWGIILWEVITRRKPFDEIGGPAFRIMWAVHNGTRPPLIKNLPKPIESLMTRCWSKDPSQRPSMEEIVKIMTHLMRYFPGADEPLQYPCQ
# [6] = molecular target: PLK1 (Homo sapiens, UniProt P53350); conditions: cited from earlier work
# PLK1, sequence (P53350 whole entry, species assumed): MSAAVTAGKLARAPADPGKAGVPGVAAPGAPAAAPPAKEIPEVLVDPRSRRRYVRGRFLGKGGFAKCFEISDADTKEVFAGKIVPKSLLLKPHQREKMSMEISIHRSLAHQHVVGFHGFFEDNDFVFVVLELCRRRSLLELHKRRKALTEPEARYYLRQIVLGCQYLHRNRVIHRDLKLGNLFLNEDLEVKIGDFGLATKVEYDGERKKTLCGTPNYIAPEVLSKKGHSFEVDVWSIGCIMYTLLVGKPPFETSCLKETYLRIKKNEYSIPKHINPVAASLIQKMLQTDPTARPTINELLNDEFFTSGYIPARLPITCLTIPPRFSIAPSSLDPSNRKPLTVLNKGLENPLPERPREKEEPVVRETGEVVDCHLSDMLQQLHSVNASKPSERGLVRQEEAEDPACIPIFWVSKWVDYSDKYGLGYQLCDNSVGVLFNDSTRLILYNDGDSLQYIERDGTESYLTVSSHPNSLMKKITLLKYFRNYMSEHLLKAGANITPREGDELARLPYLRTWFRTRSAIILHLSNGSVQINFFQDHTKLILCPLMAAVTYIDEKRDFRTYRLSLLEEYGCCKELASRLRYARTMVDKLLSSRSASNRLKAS
# [7] = tested on: MYC in DIPG-IV and SF8628 cells; test: Western blot of phospho MYC S62 and total MYC; assay type: cell-based, human; conditions: TG02 100 nM
# Procedure: FIGS. 6A-6H provide that ERK5 inhibition reduced MYC protein stability. (6A) Schematic of identifying differentially expressed phospho-proteins in DIPG-IV cells expressing ERK5 and ERK5 knockdown. (6B) Ratio of phospho:total protein changes in ERK5 knockdown versus ERK5 control DIPG-IV cells. […] (6D) Western blot of MYC in DIPG-IV cells treated with Dox and MG132 (10 uM). (6E) Immunoprecipitation of MYC and ERK5 followed by western blot of ERK5 and MYC. […] (6G) Western blot of DIPG cells re-transfected with constitutively active MYC S62D in presence of ERK5 loss. (6H) Cell doubling times of control and ERK5 knockdown DIPG cells and the effect of MYC S62D rescue. SF8628 cells (left) and DIPG-IV cells (right).
# Cell pellets were lysed in PLC lysis buffer containing protease and phosphatase inhibitors (Roche Inc.). Protein lysates were quantified using the bicinchoninic acid (BCA) assay (Pierce Chemical Co., Rockford, Ill.). 30 μg of total protein lysate was loaded in 10% SDS-PAGE gels and electrophoresed. Proteins were transferred to PVDF membranes using a semi-dry transfer apparatus (Bio-Rad). […] Binding was detected using Chemiluminescence Reagent Plus (PerkinElmer Inc., MA, USA).
# [8] = tested on: ERK5 phosphorylation in DIPG-007 and DIPG-IV cells; test: Western blot of ERK5 phosphorylation in DIPG cells; assay type: cell-based, human; conditions: 50 nM
# Procedure: Cell pellets were lysed in PLC lysis buffer containing protease and phosphatase inhibitors (Roche Inc.). Protein lysates were quantified using the bicinchoninic acid (BCA) assay (Pierce Chemical Co., Rockford, Ill.). 30 μg of total protein lysate was loaded in 10% SDS-PAGE gels and electrophoresed. Proteins were transferred to PVDF membranes using a semi-dry transfer apparatus (Bio-Rad). Membranes were blocked for one hour and probed for various proteins overnight in 5% non-fat milk or 5% BSA in Tris Buffered Saline Solution, 0.5% Tween-20 (TBST) or Phosphate Buffered Saline Solution with 0.5% Tween-20 (PBST). Membranes were washed for 5 mins in TBST (3×) and incubated with horseradish peroxidase-conjugated antibodies specific for the primary antibody (BioRad Laboratories, Inc., CA, USA). Binding was detected using Chemiluminescence Reagent Plus (PerkinElmer Inc., MA, USA).
# [9] = molecular target: FLT3 (Homo sapiens, UniProt P36888); conditions: Source Invitrogen; 10-point titration in duplicates, done once; cited from earlier work
# FLT3, sequence (P36888 27-993): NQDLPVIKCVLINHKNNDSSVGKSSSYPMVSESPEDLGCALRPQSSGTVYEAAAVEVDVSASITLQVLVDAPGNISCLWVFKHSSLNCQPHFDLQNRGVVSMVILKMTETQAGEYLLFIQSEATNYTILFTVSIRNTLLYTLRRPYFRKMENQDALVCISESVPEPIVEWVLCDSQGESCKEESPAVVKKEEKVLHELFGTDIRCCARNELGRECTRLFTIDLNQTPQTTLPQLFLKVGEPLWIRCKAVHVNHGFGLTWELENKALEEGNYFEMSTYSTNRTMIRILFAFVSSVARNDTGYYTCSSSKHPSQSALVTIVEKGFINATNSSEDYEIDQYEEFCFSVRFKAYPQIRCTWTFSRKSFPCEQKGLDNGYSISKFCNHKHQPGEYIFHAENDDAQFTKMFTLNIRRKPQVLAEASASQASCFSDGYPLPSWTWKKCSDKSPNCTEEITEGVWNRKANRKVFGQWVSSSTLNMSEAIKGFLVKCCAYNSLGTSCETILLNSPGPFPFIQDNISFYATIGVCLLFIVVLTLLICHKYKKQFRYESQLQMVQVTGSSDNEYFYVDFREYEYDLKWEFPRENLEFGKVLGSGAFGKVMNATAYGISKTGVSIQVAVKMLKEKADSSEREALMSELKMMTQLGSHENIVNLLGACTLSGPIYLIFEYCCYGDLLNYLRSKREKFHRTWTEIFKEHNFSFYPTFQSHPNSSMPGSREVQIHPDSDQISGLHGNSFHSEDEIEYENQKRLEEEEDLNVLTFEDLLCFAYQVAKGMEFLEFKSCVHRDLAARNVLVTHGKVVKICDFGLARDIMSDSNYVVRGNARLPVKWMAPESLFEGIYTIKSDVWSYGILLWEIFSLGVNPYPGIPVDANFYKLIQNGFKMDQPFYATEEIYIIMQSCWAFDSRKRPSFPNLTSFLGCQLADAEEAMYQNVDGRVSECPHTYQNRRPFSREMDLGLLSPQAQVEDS
# [10] = molecular target: TTK (Homo sapiens, UniProt P33981); conditions: cited from earlier work
# [11] = molecular target: Aurora A (Homo sapiens, UniProt O14965); conditions: cited from earlier work
# Aurora A, sequence (O14965 whole entry): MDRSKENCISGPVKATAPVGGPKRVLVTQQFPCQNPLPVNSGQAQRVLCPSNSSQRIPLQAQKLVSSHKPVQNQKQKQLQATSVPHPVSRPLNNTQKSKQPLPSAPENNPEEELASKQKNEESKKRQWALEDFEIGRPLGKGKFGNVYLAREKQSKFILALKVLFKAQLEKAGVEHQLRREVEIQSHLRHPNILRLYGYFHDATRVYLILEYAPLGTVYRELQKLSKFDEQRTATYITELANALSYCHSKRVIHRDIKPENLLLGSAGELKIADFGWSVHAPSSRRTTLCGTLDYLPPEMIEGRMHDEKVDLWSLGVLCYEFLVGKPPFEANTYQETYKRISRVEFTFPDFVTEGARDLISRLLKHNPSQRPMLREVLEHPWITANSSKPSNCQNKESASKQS
# [12] = molecular target: Nek2 (Homo sapiens, UniProt P51955); conditions: cited from earlier work
# Nek2, sequence (P51955 whole entry): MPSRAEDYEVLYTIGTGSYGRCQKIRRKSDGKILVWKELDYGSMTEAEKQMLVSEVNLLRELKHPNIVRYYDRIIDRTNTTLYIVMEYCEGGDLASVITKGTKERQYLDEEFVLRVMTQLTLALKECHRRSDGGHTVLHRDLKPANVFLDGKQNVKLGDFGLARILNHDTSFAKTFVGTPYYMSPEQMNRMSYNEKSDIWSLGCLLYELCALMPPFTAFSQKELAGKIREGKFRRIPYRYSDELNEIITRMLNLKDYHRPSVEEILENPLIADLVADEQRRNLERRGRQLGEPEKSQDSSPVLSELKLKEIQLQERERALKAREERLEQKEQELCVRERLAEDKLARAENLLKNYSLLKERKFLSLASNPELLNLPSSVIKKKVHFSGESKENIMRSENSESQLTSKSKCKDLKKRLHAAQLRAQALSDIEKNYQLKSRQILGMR
# [13] = molecular target: DYRKIB (Homo sapiens, UniProt Q9Y463); conditions: cited from earlier work
# DYRKIB, sequence (Q9Y463 whole entry): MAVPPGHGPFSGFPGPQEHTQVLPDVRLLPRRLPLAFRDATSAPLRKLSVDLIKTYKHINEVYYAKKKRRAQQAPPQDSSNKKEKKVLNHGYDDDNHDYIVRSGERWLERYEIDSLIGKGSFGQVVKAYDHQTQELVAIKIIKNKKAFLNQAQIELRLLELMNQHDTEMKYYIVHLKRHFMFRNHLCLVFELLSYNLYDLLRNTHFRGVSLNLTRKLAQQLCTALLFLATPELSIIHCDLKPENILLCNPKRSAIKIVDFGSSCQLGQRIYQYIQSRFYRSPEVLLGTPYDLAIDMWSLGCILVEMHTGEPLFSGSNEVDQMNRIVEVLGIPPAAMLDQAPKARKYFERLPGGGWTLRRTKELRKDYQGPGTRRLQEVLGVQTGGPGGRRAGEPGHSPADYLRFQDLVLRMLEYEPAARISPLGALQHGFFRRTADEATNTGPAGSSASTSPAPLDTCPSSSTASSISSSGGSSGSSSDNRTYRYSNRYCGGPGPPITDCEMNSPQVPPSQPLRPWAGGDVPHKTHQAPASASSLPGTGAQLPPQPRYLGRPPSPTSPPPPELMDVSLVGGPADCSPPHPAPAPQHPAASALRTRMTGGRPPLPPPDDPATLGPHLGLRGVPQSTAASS
# [14] = tested on: four DIPG cell lines; test: viability of DIPG cell lines treated in vitro with TG02; assay type: cell-based, human
# Procedure: Direct cell counts were performed using the Countess II FL Automated Cell Counter (ThermoFisher Scientific). Alamar blue viability (ThermoFisher Scientific) and the 5-bromo-2′-deoxyuridine (BrdU) incorporated cell proliferation assay (Cell Signaling Technology Cat #6813) were performed using the manufacturer's standard protocol. EC50 curve analysis was performed using raw fluorescent Alamar blue values that were inputted into PRISM 7.0. Drug concentrations were log 10 transformed and values normalized to percent viability with respect to vehicle treated cells. EC50 values were interpolated from a log inhibitor vs. normalized response with variable slope using a least square fit model.
# [15] = tested on: DIPG-13p and SF8628 cells; test: cell growth and Annexin-PI apoptosis assay; assay type: cell-based, human
# Procedure: FIG. 12E provides Annexin-PI quantification of DIPG cells treated in biological triplicates with ERK5 inhibitors at 48 h from (FIGS. 12C-12D).
# Apoptosis was quantified using the Pacific Blue Annexin V Apoptosis Detection Kit with propidium iodide (BioLegend, San Diego, Calif. Cat #640926). Analysis was performed at the Flow Cytometry Core, Rangos Research Center, UPMC Children's Hospital of Pittsburgh.
# [16] = molecular target: MAPKAP-K2 (Homo sapiens, UniProt P49137); conditions: cited from earlier work
# MAPKAP-K2, sequence (P49137 whole entry): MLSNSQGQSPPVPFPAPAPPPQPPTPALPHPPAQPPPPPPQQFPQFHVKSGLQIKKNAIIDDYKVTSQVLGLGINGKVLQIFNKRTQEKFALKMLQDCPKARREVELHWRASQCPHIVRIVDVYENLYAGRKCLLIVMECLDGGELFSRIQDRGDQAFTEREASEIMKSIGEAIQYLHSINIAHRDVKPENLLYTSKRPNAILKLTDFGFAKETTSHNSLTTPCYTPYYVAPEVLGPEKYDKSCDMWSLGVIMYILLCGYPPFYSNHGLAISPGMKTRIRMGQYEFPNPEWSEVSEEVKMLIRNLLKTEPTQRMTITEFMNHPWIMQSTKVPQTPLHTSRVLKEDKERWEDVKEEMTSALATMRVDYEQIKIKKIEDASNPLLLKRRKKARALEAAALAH
# [17] = tested on: tumor cells (DIPG); test: cell viability with TG02 and radiation (cell count/trypan blue); assay type: cell-based; conditions: day 5
# Procedure: Cells were plated on day 1 (1×10^6). […] On day 5, cell viability were measured by cell count/trypan blue assay on thermo cell countess machines. For fractionated rad, additional 1.8 Gy doses were given on days 3 and 4. […] Therefore, the combination of TG02 and radiation can provide significant, synergistic benefits for treating DIPG as compared to when TG02 and radiation are administered alone.
# [18] = tested on: ERK5 auto-phosphorylation and cleaved PARP in tumor; test: western blot of tumor lysates from treated mice; assay type: in vivo; conditions: mice sacrificed after 5 days of treatment with TG02
# Procedure: Total ERK5 was used as a loading control.
# All animal procedures were carried out ethically according to animal user protocols approved by Institutional Animal Care Committee (IACUC). 4-6 week-old non-obese diabetic severe combined immune deficiency male or female mice (NOD-SCID-Prkdc^scid) were injected with 1×10^5 SU-DIPG-13p cells or 1×10^5 SF8628 DIPG cells. Cells were re-suspended in 2 μl of PBS and injected into the pons/midbrain using a stereotactic frame (Stoelting) and automated cell injector (Stoelting) with cells delivered over 4 minutes. Coordinates were as follows from the Lambda suture (x=0.8 mm, y=−0.8 mm, z=−5.0 mm). […]
smiles,measurement,setting,value
"CN1C/C=C/CCOc2cccc(c2)-c2ccnc(n2)Nc2cccc(c2)C1 [TG02, (16E)-14-methyl-20-oxa-5,7,14,27-tetraazatetracyclo[19.3.1.12,6.18,12]heptacosa-1(25),2(27),3,5,8(26),9,11,16,21,23-decaene]","most clinically significant toxicities, TG02 combined with RT","[1]; human, in vivo",grade 2 nausea and vomiting and grade 3 neutropenia
same,"significant drug-related toxicities, single agent",[1]; twice a week in older adults,increased liver function tests and grade 3 neutropenia
same,MTD as single-agent,"[1]; twice a week in older adults, probably",~150 mg per dose
same,inhibition at 100 nm,[2],less than 50%
same,inhibition at 100 nm,[3],less than 50%
same,inhibition at 100 nm,[4],less than 50%
same,inhibition at 100 nm,[5],less than 50%
same,inhibition at 100 nm,[6],less than 50%
same,phospho MYC (S62) and total MYC,[7],reduced phospho and total MYC
same,ERK5 Thr218/Tyr220 phosphorylation (regulated by MEK5),[8],did not inhibit
same,ERK5 auto-phosphorylation and ERK5 activity sites (Ser731 and Thr733),[8],confirmed to inhibit
same,IC50,[9],19 nM
same,inhibition at 100 nm,[10],less than 50%
same,inhibition at 100 nm,[11],less than 50%
same,inhibition at 100 nm,[12],less than 50%
same,inhibition at 100 nm,[13],less than 50%
same,IC50,"[14]; Homo sapiens, read-out: IC50 of TG02 in vitro against DIPG cell lines, approximate",~100 nM
same,EC50,"[14]; Homo sapiens, median of four DIPG cell lines in vitro, read-out: median EC50 (decreased viability)",75 nM
same,EC50,"[14]; Homo sapiens, range over four DIPG cell lines in vitro, read-out: EC50 range (decreased viability)",60 to 93 nM
same,apoptosis,[14]; four DIPG cell lines in vitro,increased apoptosis
same,apoptosis (Annexin-PI),"[15]; 48 h, vs DMSO vehicle control",induction of apoptosis; also recorded: increased populations in early apoptosis
same,"viable cells (Annexin negative, PI negative)","[15]; 48 h, vs DMSO vehicle control",decreased viable cells
same,cell growth,[15]; vs vehicle,diminished cell growth
same,inhibition at 100 nm,[16],less than 50%
same,"tumor cell viability, TG02 alone",[17]; vehicle control about 100%,50%
same,"tumor cell viability, TG02 and radiation",[17]; radiation 3 fractions of 1.8 Gy,about 25%
same,in vivo ERK5 auto-phosphorylation,[18],inhibition of ERK5 auto-phosphorylation
same,in vivo apoptosis by cleaved PARP,[18],induction of apoptosis
